Test results reported in ChEMBL document CHEMBL1201862, “PubChem BioAssay data set” (2004).
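Step 1: Grow cells in 96-well plates. Step 2: Expose to compound for 48 hours at 5 concentrations. Step 3: Interpolate endpoints linearly; if unreached, use highest concentration. GI50 = concentration required for 50% inhibition of growth.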 Activity calls are given as the source filed them. No stated cut-off is given here; in the data, active = GI50 up to about 1.1 µM and inactive = higher.

Assays:
Experiment in all cases: NCI anticancer screen, dose series, 48 h
IGROV-1 = system: IGROV-1
SF-539 = system: SF-539
HOP-62 = system: HOP-62
SK-OV-3 = system: SK-OV-3
COLO 205 = system: COLO 205
SN12C = system: SN12C
UACC-62 = system: UACC-62
Malme-3M = system: Malme-3M
CCRF-CEM = system: CCRF-CEM
NCI-H23 = system: NCI-H23
SF-268 = system: SF-268
TK-10 = system: TK-10
RPMI-8226 = system: RPMI-8226
HCT-15 = system: HCT-15
NCI-H460 = system: NCI-H460

Row | SMILES | GI50 (IGROV-1) | GI50 (SF-539) | GI50 (HOP-62) | GI50 (SK-OV-3) | GI50 (COLO 205) | GI50 (SN12C) | GI50 (UACC-62) | GI50 (Malme-3M) | GI50 (CCRF-CEM) | GI50 (NCI-H23) | GI50 (SF-268) | GI50 (TK-10) | GI50 (RPMI-8226) | GI50 (HCT-15) | GI50 (NCI-H460)
1 | COc1ccc(NC(=O)COC(=O)c2cccc3c(=O)c4ccccc4[nH]c23)cc1 | 27.4 µM (inactive) | 18.1 µM (inactive) | 23.8 µM (inactive) | 30.2 µM (inactive) | 17.8 µM (inactive) | 27.5 µM (inactive) | 17.7 µM (inactive) | 23.4 µM (inactive) | 13.8 µM (inactive) | 15.1 µM (inactive) | 22.3 µM (inactive) | 15.8 µM (inactive) |  |  | 
2 | COc1ccc(C2c3cc4c(cc3OC(O)(CO)C2C(=O)O)OCO4)c(OC)c1OC.COc1ccc(C2c3cc4c(cc3OC3(O)COC(=O)C23)OCO4)c(OC)c1OC (configuration not stated) | > 100 µM (inactive) | > 100 µM (inactive) | > 100 µM (inactive) | > 100 µM (inactive) | > 100 µM (inactive) | > 100 µM (inactive) | > 100 µM (inactive) | > 100 µM (inactive) | 39.4 µM (inactive) | > 100 µM (inactive) |  | > 100 µM (inactive) | > 100 µM (inactive) | > 100 µM | > 100 µM (inactive)
3 | COc1ccc(CC(=O)c2cc(OC)c(OC)cc2C)cc1OC | 14 µM (inactive) |  | > 100 µM (inactive) | > 100 µM (inactive) | > 100 µM (inactive) | 55.1 µM (inactive) | 38 µM (inactive) | > 100 µM (inactive) | > 100 µM (inactive) | 20.5 µM (inactive) | 89.3 µM (inactive) | > 100 µM (inactive) | 65.3 µM (inactive) | 46.5 µM | > 100 µM (inactive)
4 | Cn1ncc2c(c1=O)Nc1ccccc1S2(=O)=O | > 100 µM (inactive) | 21.6 µM (inactive) | > 100 µM (inactive) | > 100 µM (inactive) | 54.7 µM (inactive) | > 100 µM (inactive) | > 100 µM (inactive) | > 100 µM (inactive) | 61.1 µM (inactive) | > 100 µM (inactive) | > 100 µM (inactive) | > 100 µM (inactive) | 53.8 µM (inactive) | > 100 µM | > 100 µM (inactive)
5 | CCOc1cc2c[n+](C)c3c4cc(OC)c(OC)cc4ccc3c2cc1OC | > 100 µM (inactive) | > 100 µM (inactive) | > 100 µM (inactive) |  | > 100 µM (inactive) | > 100 µM (inactive) |  | > 100 µM (inactive) | 20.8 µM (inactive) | > 100 µM (inactive) | > 100 µM (inactive) | > 100 µM (inactive) | > 100 µM (inactive) | > 100 µM | > 100 µM (inactive)
6 | CC(C)(C)c1cc(Cc2ccc([N+](C)(C)C)cc2)c(O)c(C(C)(C)C)c1 | 14.2 µM (inactive) | 16.5 µM (inactive) | 16.6 µM (inactive) | 25.2 µM (inactive) |  | 14.9 µM (inactive) | 14.3 µM (inactive) | 17.9 µM (inactive) | 12.5 µM (inactive) | 17.7 µM (inactive) | 15 µM (inactive) | 24.6 µM (inactive) | 14.8 µM (inactive) | > 100 µM | 18.6 µM (inactive)
7 | CC(=O)C1=C(C)Cn2c(=O)c3ccccc3c(=O)n2C1 | > 100 µM (inactive) | > 100 µM (inactive) | > 100 µM (inactive) | > 100 µM (inactive) | > 100 µM (inactive) | > 100 µM (inactive) |  | > 100 µM (inactive) | > 100 µM (inactive) | > 100 µM (inactive) | > 100 µM (inactive) | > 100 µM (inactive) | > 100 µM (inactive) | > 100 µM | > 100 µM (inactive)
8 | O=C1/C(=C/c2ccc(Cl)cc2)CNC/C1=C\c1ccc(Cl)cc1 | 2.17 µM (inactive) | 1.77 µM (inactive) | 3.42 µM (inactive) | 10.8 µM (inactive) | 2.03 µM (inactive) | 2.67 µM (inactive) | 2.07 µM (inactive) | 3.81 µM (inactive) |  | 1.95 µM (inactive) |  | 4.06 µM (inactive) | 0.267 µM (active) | 1.62 µM | 2.11 µM (inactive)
9 | Nc1nc2c(ncn2C2OC(CO)C(O)C2N)c(=O)[nH]1 (configuration not stated) | > 100 µM (inactive) | > 100 µM (inactive) | > 100 µM (inactive) | > 100 µM (inactive) | > 100 µM (inactive) | > 100 µM (inactive) | > 100 µM (inactive) | > 100 µM (inactive) | 40.1 µM (inactive) | > 100 µM (inactive) | > 100 µM (inactive) | > 100 µM (inactive) |  | > 100 µM | > 100 µM (inactive)
10 | Cc1cccc(C)c1NC(=O)C(=O)CC(=O)c1cccc([N+](=O)[O-])c1 | > 100 µM (inactive) | > 100 µM (inactive) | > 100 µM (inactive) |  | > 100 µM (inactive) | > 100 µM (inactive) | > 100 µM (inactive) | > 100 µM (inactive) | > 100 µM (inactive) | > 100 µM (inactive) | > 100 µM (inactive) | > 100 µM (inactive) | > 100 µM (inactive) | > 100 µM | > 100 µM (inactive)
